{
  "source": "patent US7790700B2",
  "about": "“Derivatives of partially desulphated glycosaminoglycans endowed with antiangiogenic activity and devoid of anticoagulating effect” (Sigma-Tau Industrie Farmaceutiche Riunite S.p.A., priority 2000, dated 2010)",
  "key": {"[1]": {"assay": "Evaluation of heparin toxicity in Balb/c mice", "assay_type": "in vivo", "conditions": "q2dx5", "method": "20 6-week-old female Balb/c mice weighing 20 g (Harlan), divided into groups by casual randomisation, were treated with heparin sodium, as a reference, and with the compound according to the present invention called ST1514. The treatment schedule was of the q2dx5 type, i.e. 5 total administrations at intervals of 2 days, administering 200 μl/mouse of 50 mg/kg/10 ml and 25 mg/kg/10 ml solutions subcutaneously.\n48 hours after the last administration of the test substances a blood sample is taken for full blood count and haematological analysis.\nBlood sampling: the mice are placed in a hermetically sealed box, into which is insufflated CO2 in an amount sufficient to stun the animal. Blood is then taken from the retro-orbital plexus of each animal (approximately 1 ml of blood/mouse) which is distributed in amounts of 0.4 ml of blood/mouse in Eppendorf test tubes containing 20 μl of Vister heparin (5000 U/ml) for carrying out the full blood count and haematological analysis; and the same amount of blood is distributed in other Eppendorf test tubes containing 50 μl of 3.8% sodium citrate in order to perform prothrombin time determinations. After taking the blood sample, each animal is sacrificed by cervical dislocation.\nFull blood count: the appliance (Cell Analyzer 580 A, DELCON) is used according to the standard procedure described in the operating manual. The blood sample (25 μl) is taken by the dilutor and brought up to a volume of 10 ml (dil. 1:400) with isotonic solution (PLTA saline, DELCON). From this solution (called solution A), the dilutor automatically takes a sample of 100 μl and brings it up to a volume of 10 ml (dil. 1:100), thus obtaining solution B. To solution A are added 3 drops of Emosol (DELCON) for lysis of the red blood cells. This solution is used for the WBC reading. Solution B, on the other hand, is used for the RBC and platelet (PLT) readings. Each sample is read in duplicate.\nNone of the study treatment groups presents significant differences in the numbers of white blood cells as compared to the control group."}, "[2]": {"system": "chick embryo chorioallantoic membrane", "assay": "Angiostatic activity on CAM model (gelatin sponge)", "assay_type": "in vivo", "method": "For the study of angiogenesis the model used was the chick embryo chorioallantoic membrane model (Ribatti e al. Int. J. Dev. Biol., 40, 1189 (1996)).\n300 embryonated hens' eggs were incubated at 37° C. in constant humidity conditions. On the 3rd day of incubation, after aspirating 2-3 ml of albumen from the acute pole of the egg so as to detach the CAM from the shell, a window was cut with scissors in the shell. The vessels underlying the CAM were thus exposed. The window was closed with a transparent glass panel and the eggs were put back into the incubator. On the 8th day of incubation, in sterile conditions, the CAMs were treated according to the protocol described below using a technique developed recently (Ribatti et al. J. Vasc. Res. 34, 455 (1997)), which involves the use of sterile gelatin sponges measuring 1 mm^2 in size. […] The sponges were first rested on the surface of the CAM, and then 3 μl of solution of the test substance were pipetted onto the surface of the sponge. The CAMs were examined daily using a Zeiss SR stereomicroscope equipped with a photographic device. The experiments were discontinued on the 12th day of incubation, when an overall assessment of the angiogenic activity of the molecules was carried out, expressed as percentage inhibition in relation to the number of experiments initiated and completed (Table 9). In addition, for compound ST1514, assayed at the concentration of 100 μg/embryo, a macroscopic quantitative evaluation of the angiostatic activity was also carried out according to the technique proposed by Brooks et al. (Science, 264, 569, (1994)), counting the number of vessels surrounding the sponge. The number of vessels was compared with that of the control sponges treated with PBS (vehicle of the test compound) and with FGF-2 (positive control)."}, "[3]": {"system": "CAM", "conditions": "CAM test in the presence of corticosteroids, Lapierre et al. Table III; cited from earlier work"}, "[4]": {"conditions": "background table, structure/antimetastatic activity; cited from earlier work"}, "[5]": {"system": "L6-WT1 cells (rat myoblasts transfected with FGFR-1)", "assay": "Inhibition of DNA synthesis in L6 cells transfected with FGFR-1", "assay_type": "cell-based", "conditions": "test compound 100 μ/ml", "method": "L6-WT1 cells (rat myoblasts transfected with FGFR-1) were seeded at a density of 25,000 cells/cm^2 in 48-well plates in DMEM+ 10% FCS. After 24 hours the cells were washed with serum-free medium and incubated for 48 hours with DMEM+ 0.5% FCS. The cells were then incubated for 16 hours with FGF-2 at the concentrations of 15 and 30 ng/ml in the presence or absence of the test compounds (all at 100 μ/ml). At the end of the incubation 3H-thymidine (0.25 μCi/well) was added without changing the medium. After 6 hours, precipitable TCA was measured. Each experimental point is the mean of 3 determinations."}, "[6]": {"system": "Endothelial Cell", "assay": "Endothelial cell proliferation (Table 11)", "assay_type": "cell-based", "conditions": "Table 11, endothelial cell proliferation"}, "[7]": {"system": "BAEC cells", "assay": "Test of cell proliferation in BAEC", "assay_type": "cell-based, bovine", "conditions": "30 ng/ml FGF-2, 3 days, crystal-violet", "method": "BAEC cells at the 7th pass were seeded at a density of 2,500 cells/cm^2 in 96-well in EBM medium without bovine brain extract and hEGF. To this medium were added 30 ng/ml of FGF-2 and each of the test compounds at 5 concentrations ranging from 10 ng/ml to 100 μg/ml. After 3 days the cells were fixed and stained with crystal-violet and the optical density was determined by means of an ELISA microplate reader. Each experimental point was done in quadruplicate and the ID50 was calculated."}, "[8]": {"system": "foetal BAEC GM 7373", "assay": "Test of cell proliferation in foetal BAEC GM 7373", "assay_type": "cell-based, bovine", "conditions": "GM7373, 10 ng/ml FGF-2, cell count", "method": "GM7373 cells were seeded at a density of 70,000 cells/cm^2 in 96-well plates in MEM+ 10% FCS medium. After 24 hours, the cells were washed with serum-free medium and treated with 10 ng/ml of FGF-2 in medium containing 0.4% FCS. After 8 hours, the test compounds were added to the medium at 5 concentrations ranging from 10 ng/ml to 100 μg/ml. After a further 16 hours, the cells were trypsinised and counted in a Burker chamber. The ID50 was calculated for each compound and the results are the means of 2 experiments in triplicate."}, "[9]": {"molecular_target": "T1, FGFR/FGF2/HSPG ternary complex (Homo sapiens, UniProt P09038)", "T1 construct": "FGFR-1 made by transfected HSPG-deficient CHO 745/flg cells; HSPGs on fixed CHO-K1 cells", "T1 sequence (P09038 143-288, one chain of several)": "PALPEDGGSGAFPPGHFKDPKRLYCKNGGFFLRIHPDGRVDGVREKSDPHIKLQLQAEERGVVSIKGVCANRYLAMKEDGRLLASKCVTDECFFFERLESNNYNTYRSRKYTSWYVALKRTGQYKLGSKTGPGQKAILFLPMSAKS", "assay": "Inhibition of FGF2-mediated intercellular adhesion of CHO-K1 and CHO-745flg cells", "assay_type": "cell-based, Chinese hamsters", "excerpt": "To this end an in-vitro model was designed capable of assessing the interference of the various different heparin derivatives with bFGF binding to its own receptor.\nThese latter cells were stably transfected with cDNA for green fluorescent protein and for this reason could be observed under the fluorescence microscope with a combination of filters for the detection of green emission. In brief, the technique is based on the possibility that the two types of cells may interact (form stable bonds) only if FGF is added to the two cell types. In fact, in this case, the heparan sulphates of the CHO-745flg cells will bind to FGF, which in turn will bind to the CHO-K1 cells, establishing a bridge. The binding that occurs is detectable as a result of the green fluorescence emitted by the CHO-745flg cells.\nCHO-K1 cells were seeded at a density of 90,000 cells/cm^2 in 24-well plates. After 24 hours the cells were fixed in 3% glutaraldehyde in PBS for 2 hours at 4° C. and washed with 0.1 M glycine/PBS. On the fixed monolayers CHO 745/flg cells, transfected with FGFR-1, at a density of 50,000 cells/cm^2 in DMEM containing 10 mM EDTA, 30 ng/ml FGF-2 and increasing doses of the test compounds. After 2 hours' incubation at 37° C., the adhering cells were counted under the inverted microscope. The results were expressed as percentage of the number of cells adhering compared to those measured in the absence of the test compounds."}, "[10]": {"conditions": "50 mg/kg and 25 mg/kg subcutaneously"}},
  "data": [
    {"substance": "heparin sodium", "values": [
      {"measurement": "platelets compared to the control group", "setting": "[1]; 25 mg/kg subcutaneously", "result": "significant platelet deficiency"},
      {"measurement": "haematoma at the inoculum site", "setting": "[1]; [10]", "result": "marked haematoma at the inoculum site"},
      {"measurement": "liver at autopsy", "setting": "[1]; [10]", "result": "livers with abnormal characteristics"},
      {"measurement": "red blood cells compared to the control group", "setting": "[1]; 50 mg/kg and 25 mg/kg subcutaneously, 48 hours after last administration", "result": "reduction in red blood cells"}
    ]},
    {"substance": "FGF-2: basic fibroblast growth factor, positive control with potent angiogenic activity on the CAM", "values": [
      {"measurement": "N. vessels at sponge/CAM interface", "setting": "[2]; 1 μg/embryo, positive control, macroscopic quantitative evaluation (Brooks)", "result": "50 + 4"}
    ]},
    {"substance": "2-O-desulfated heparin", "values": [
      {"measurement": "antiangiogenic activity relative to heparin (in words)", "setting": "[3]", "result": "partly maintained the antiangiogenic activity of heparin"}
    ]},
    {"substance": "Heparin", "values": [
      {"measurement": "% inhibition (antimetastatic activity)", "setting": "[4]", "result": 97, "unit": "%"},
      {"measurement": "Incorporation of 3H-thymidine (% vs. control)", "setting": "[5]; FGF-2 15 ng/ml", "result": 50, "unit": "% vs. control"},
      {"measurement": "Incorporation of 3H-thymidine (% vs. control)", "setting": "[5]; FGF-2 30 ng/ml", "result": 74, "unit": "% vs. control"},
      {"measurement": "Cell Prolif. (ID50, ng/mL)", "setting": "[6]", "result": "2 000 ng/mL"},
      {"measurement": "Inhibition (ID50) of cell proliferation", "setting": "[7]", "result": 100, "unit": "µg/mL"},
      {"measurement": "CAM (% inhibition)", "setting": "[2]; 100 μg/embryo", "result": 0, "unit": "%"},
      {"measurement": "angiostatic activity on CAM (in words)", "setting": "[2]; remark below Tables 9 and 10", "result": "no activity"},
      {"measurement": "Inhibition (ID50) of cell proliferation", "setting": "[8]", "result": 2, "unit": "µg/mL"},
      {"measurement": "Inhibition (ID50) of intercellular adhesion", "setting": "[9]; 30 ng/ml FGF-2, 2 hours at 37° C., 6 concentrations 1 ng/ml to 100 μg/ml", "result": 100},
      {"measurement": "Cell-Cell Adh. (ID50, ng/mL)", "setting": "[9]; Table 11, FGF2-mediated cell-cell adhesion", "result": 100, "unit": "ng/mL"},
      {"measurement": "ID50, FGF2-mediated cell-cell adhesion test", "setting": "[9]; text b166", "result": 0.1, "unit": "µg/mL"}
    ]}
  ]
}
